# In US20100104614A1, “PROVIDONE COMPOSITIONS FOR WOUND HEALING” (priority 2008, published 2010):
# Assay: Treatment of non-healing dog bite wounds in a patient (Example 1)
# Assay type: in vivo, human
# Settings: course of antibiotics (a cephalosporin and flagyl) and daily dressing changes; after five weeks
# Description: A patient presented with six non-healing dog bite wounds, one on their forearm, and the rest on their lower extremeties. Their wounds were treated with a course of antibiotics (a cephalosporin and flagyl) and daily dressing changes. […] Further treatment with hyperbaric oxygen was being contemplated.
# Approximately one tablespoon of povidone powder was sprinkled over the patient's wounds. Within four days, wounds had completely healed.
smiles,measurement,value
Cc1ncc([N+](=O)[O-])n1CCO [flagyl],wound healing outcome of prior treatment,remained unhealed
